Earlier results in patent publication US20090197966A1, “Use of Hypothermia Inducing Drugs” (priority 2006, published 2009).
Read-outs that look alike come from different tables or passages of the source.

System: TRPV1 receptor
Details: systemic administration

COc1cc(CNC(=O)CCCC/C=C/C(C)C)ccc1O [capsaicin, 8-methyl-N-vallilyl-6-nonenamide]
hypothermic response (mammals): dramatic hypothermic response
hypothermic response (mice lacking the TRPV1 gene): absent
